Patent US8877815B2, “Substituted carbamoylcycloalkyl acetic acid derivatives as NEP” (Novartis AG, priority 2010, dated 2014)

Molecular target: T1, recombinant human neutral endopeptidase (NEP, EC 3.4.24.11) (Homo sapiens, UniProt P08473)
T1 construct: made in house; host or cells: insect cells
Assay: in vitro inhibition of recombinant human neutral endopeptidase (fluorescence lifetime assay)
Format: biochemical
Conditions: 1 hour pre-incubation, read after 1 hour at room temperature, pH 7.4, substrate Cys(PT14)-Arg-Arg-Leu-Trp-OH 0.7 μM
Description: The activity of a compound according to the present invention can be assessed by the following in vitro & in vivo methods and/or by the following in vitro & in vivo methods well-described in the art. See A fluorescence lifetime-based assay for protease inhibitor profiling on human kallikrein 7 Doering K, Meder G, Hinnenberger M, Woelcke J, Mayr L M, Hassiepen U Biomol Screen. 2009 January; 14(1):1-9.
In particular, the in vitro inhibition of recombinant human neutral endopeptidase (NEP, EC 3.4.24.11) can be determined as follows:
Recombinant human neutral endopeptidase (expressed in insect cells and purified using standard methods, final concentration 7 pM) is pre-incubated with test compounds at various concentrations for 1 hour at room temperature in 10 mM sodium phosphate buffer at pH 7.4, containing 150 mM NaCl and 0.05% (w/v) CHAPS. The enzymatic reaction is started by the addition of a synthetic peptide substrate Cys(PT14)-Arg-Arg-Leu-Trp-OH to a final concentration of 0.7 μM. Substrate hydrolysis leads to an increase fluorescence lifetime (FLT) of PT14 measured by the means of a FLT reader as described by Doering et al. (2009). The effect of the compound on the enzymatic activity was determined after 1 hour (t=60 min) incubation at room temperature. The IC50 values, corresponding to the inhibitor concentration showing 50% reduction of the FLT values measured in absence of inhibitor, are calculated from the plot of percentage of inhibition vs. inhibitor concentration using non-linear regression analysis software.

T1 sequence (P08473 whole entry): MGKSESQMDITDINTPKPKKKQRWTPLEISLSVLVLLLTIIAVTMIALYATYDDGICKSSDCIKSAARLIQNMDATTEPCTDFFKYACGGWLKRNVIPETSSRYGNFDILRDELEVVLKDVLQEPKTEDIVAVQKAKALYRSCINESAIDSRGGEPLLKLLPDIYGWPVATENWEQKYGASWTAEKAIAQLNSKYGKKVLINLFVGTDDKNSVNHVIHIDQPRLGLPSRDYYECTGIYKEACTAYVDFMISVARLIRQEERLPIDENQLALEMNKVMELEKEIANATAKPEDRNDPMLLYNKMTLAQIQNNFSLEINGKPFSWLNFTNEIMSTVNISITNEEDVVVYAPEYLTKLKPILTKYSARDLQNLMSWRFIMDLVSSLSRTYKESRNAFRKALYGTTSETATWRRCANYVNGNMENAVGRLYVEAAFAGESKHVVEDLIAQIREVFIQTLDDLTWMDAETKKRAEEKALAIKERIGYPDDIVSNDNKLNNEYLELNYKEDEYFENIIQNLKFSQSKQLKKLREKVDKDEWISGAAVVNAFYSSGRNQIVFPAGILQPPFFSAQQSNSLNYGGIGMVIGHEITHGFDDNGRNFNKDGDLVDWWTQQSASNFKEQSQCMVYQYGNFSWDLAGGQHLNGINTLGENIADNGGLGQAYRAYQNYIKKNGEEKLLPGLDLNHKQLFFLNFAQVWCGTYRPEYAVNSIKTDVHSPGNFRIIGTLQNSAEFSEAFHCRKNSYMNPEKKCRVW

| Structure (SMILES) | IC50 |
| --- | --- |
| O=C(O)CC1(C(=O)N[C@@H](Cc2ccc(-c3ccccc3Cl)cc2)c2nnn[nH]2)CCCC1 [Example 8-1] | 6 nM |
| O=C(O)CC1(C(=O)N[C@@H](Cc2ccc(-c3ccccc3)cc2)C(=O)O)CCCC1 [Example 1-7] | 15 nM |
| Cc1cccc(-c2ccc(C[C@H](NC(=O)C3(CC(=O)O)CCCC3)c3nnn[nH]3)cc2)c1 [Example 9-1, (S)-2-(1-(2-(3′-methylbiphenyl-4-yl)-1-(1H-tetrazol-5-yl)ethylcarbamoyl)cyclopentyl)acetic acid] | 40 nM |
| O=C(O)CC1(C(=O)N[C@@H](Cc2ccc(-c3ccccc3)cc2)C(=O)N2CCC[C@H]2C(=O)O)CCCC1 [Example 1-1, (S)-1-((S)-3-(biphenyl-4-yl)-2-(1-(carboxymethyl)cyclopentanecarboxamido)propanoyl)pyrrolidine-2-carboxylicacid] | 12 nM |

More lines, in order of falling IC50, values ahead:

| IC50 | Structure (SMILES) |
| --- | --- |
| 11 nM | COc1cccc(-c2ccc(C[C@H](NC(=O)C3(CC(=O)O)CCCC3)c3nnn[nH]3)cc2)c1 [Example 9-2] |
| 10 nM | O=C(O)CC1(C(=O)N[C@@H](Cc2ccc(-c3ccccc3)cc2)c2nnn[nH]2)CCCC1 [Example 31-2, {1-[(S)-2-Biphenyl-4-yl-1-(1H-tetrazol-5-yl)-ethylcarbamoyl]-cyclopentyl}-acetic acid] |
